For assay [1], the system named is HepG2. As to the kind of experiment: Cytotoxicity against human HepG2 cells assessed as reduction in cell growth incubated for 48 hrs by MTT assay. The class given is functional, cell-based. The following applies: HepG2, 48 h. (Formazan colour is commonly taken as a measure of viable cells.)
The test system of assay [2] is KB. As to the kind of experiment: Cytotoxicity against human KB cells assessed as reduction in cell growth incubated for 48 hrs by MTT assay. Format: functional, cell-based.
In assay [3] the target is Tubulin. As to the kind of experiment: Inhibition of tubulin polymerization (unknown origin). The class given is protein-complex assay, Homo sapiens.
Assay [4] addresses Tubulin (Homo sapiens) (UniProt P68371+Q9H4B7+P0DPH7+P68366+Q13509+Q71U36+P04350+Q3ZCM7+P07437+P68363+Q9BQE3+Q6PEY2+Q13885+Q9BVA1+Q9BUF5). As to the kind of experiment: Inhibition of [3H]-colchicine binding to tubulin (unknown origin) at 5 uM relative to control. Format: protein-complex assay.
Assay [5] relates to HeLa. The experiment in a line: Antiproliferative activity against human HeLa cells assessed as reduction in cell viability incubated for 72 hrs by MTT assay. Format: functional, cell-based.
The subject of assay [6] is HepG2. The experiment in a line: Antiproliferative activity against human HepG2 cells assessed as reduction in cell viability incubated for 72 hrs by MTT assay. Format: functional, cell-based. The settings on record: HepG2, 72 h.
Assay [7] concerns OVCAR-3. The experiment in a line: Antiproliferative activity against human OVCAR-3 cells assessed as reduction in cell viability incubated for 72 hrs by MTT assay. The class given is functional, cell-based. The following applies: OVCAR-3, 72 h.
Assay [8] has as its system NCI-H295R. As to the kind of experiment: Antiproliferative activity against human NCI-H295R cells assessed as reduction in cell viability incubated for 72 hrs by MTT assay. Format: functional, cell-based.
In assay [9] the test system is MCF7. The experiment in a line: Antiproliferative activity against human MCF7 cells assessed as reduction in cell growth incubated for 48 hrs by MTT assay. The following applies: MCF7, 48 h. The class given is functional, cell-based.
For assay [10], the system named is ARO. The experiment in a line: Antiproliferative activity against human ARO cells assessed as reduction in cell growth incubated for 48 hrs by MTT assay. The class given is functional, cell-based.
Assay [11] relates to A549. As to the kind of experiment: Antiproliferative activity against human A549 cells assessed as reduction in cell growth incubated for 48 hrs by MTT assay. Format: functional, cell-based. The settings on record: A549, 48 h.
The test system of assay [12] is HT-29. As to the kind of experiment: Antiproliferative activity against human HT-29 cells assessed as reduction in cell growth incubated for 72 hrs by MTT assay. Format: functional, cell-based. The following applies: HT-29, 72 h.
Assay [13] has as its system PT-45. The experiment in a line: Antiproliferative activity against human PT-45 cells assessed as reduction in cell growth incubated for 72 hrs by MTT assay. The settings on record: PT-45, 72 h. Format: functional, cell-based.
Assay [14] deals with OE19. As to the kind of experiment: Antiproliferative activity against human OE19 cells assessed as reduction in cell growth incubated for 72 hrs by MTT assay. Format: functional, cell-based. The settings on record: OE19, 72 h.
Assay [15] concerns OE33. The experiment in a line: Antiproliferative activity against human OE33 cells assessed as reduction in cell growth incubated for 72 hrs by MTT assay. Format: functional, cell-based. The settings on record: OE33, 72 h.
The test system of assay [16] is A549. The experiment in a line: Antiproliferative activity against human A549 cells assessed as reduction in cell growth incubated for 72 hrs by MTT assay. The settings on record: A549, 72 h. Format: functional, cell-based.
Assay [17] relates to MDA-MB-468. The experiment in a line: Antiproliferative activity against human MDA-MB-468 cells assessed as reduction in cell growth incubated for 72 hrs by MTT assay. Format: functional, cell-based. The following applies: MDA-MB-468, 72 h.
Assay [18] has as its system A-375. The experiment in a line: Antiproliferative activity against human A-375 cells assessed as reduction in cell growth incubated for 72 hrs by MTT assay. The settings on record: A-375, 72 h. The class given is functional, cell-based.
Assay [19] concerns Jurkat. As to the kind of experiment: Antiproliferative activity against human Jurkat cells assessed as reduction in cell growth incubated for 72 hrs by MTT assay. The class given is functional, cell-based.
Assay [20] relates to MCF7. The experiment in a line: cells. The settings on record: Homo sapiens, MCF7, 72 h.
Assay [21] relates to Influenza A virus. The experiment in a line: Antiviral activity against Influenza A virus H1N1 infected in dog MDCK cells assessed as inhibition in virus-induced cytopathic effect incubated for 48 hrs by SRB assay. Format: functional, organism-based. A general note: Damage to the host cells serves as the signal in cytopathic effect assays.
Assay [22] can be described thus: Inhibition of Influenza A virus H1N1 neuraminidase.
The subject of assay [23] is HL-60. As to the kind of experiment: Antiproliferative activity against human HL-60 cells assessed as reduction in cell growth incubated for 48 hrs by MTT assay. The class given is functional, cell-based. The settings on record: HL-60, 48 h.
The subject of assay [24] is MV4-11. The experiment in a line: Antiproliferative activity against human MV4-11 cells assessed as reduction in cell growth incubated for 48 hrs by MTT assay. Format: functional, cell-based. The following applies: MV4-11, 48 h.
The target of assay [25] is Mitogen-activated protein kinase; ERK1/ERK2 (Homo sapiens, UniProt P27361+P28482). As to the kind of experiment: Inhibition of RAF1- induced activation of MEK (unknown origin) signalling pathway assessed as reduction in ERK1/2 phosphorylation. Format: protein assay.
The subject of assay [26] is WiDr. The experiment in a line: Antiproliferative activity against human WiDr cells assessed as reduction in cell viability incubated for 48 hrs by MTT assay. The class given is functional, cell-based.
Assay [27] has as its system HT-1080. The experiment in a line: cells. The settings on record: Homo sapiens, HT-1080, 48 h.
Description: Antiproliferative activity against human HT-1080 cells assessed as reduction in cell viability incubated for 48 hrs by MTT assay
The subject of assay [28] is Human immunodeficiency virus 1. As to the kind of experiment: Antiviral activity against HIV1 infected in H9 cells assessed as reduction in viral replication. The settings on record: Human immunodeficiency virus 1, H9; read-out: ED50 (the source's name). Format: functional.
Assay [29] has as its system DU-145. As to the kind of experiment: Antiproliferative activity against human DU-145 cells assessed as reduction in cell viability measured for 48 hrs by MTT assay. The class given is functional, cell-based. The settings on record: DU-145, 48 h.
The subject of assay [30] is DU-145. As to the kind of experiment: Antitumor activity against human DU-145 cells xenografted in Balb/c nude mouse model assessed as tumor growth inhibition at 5 mg/kg, ip administered once daily for 16 days relative to control. Also noted: scale not given: the % may be the effect or the level left. The following applies: time 16 day. The class given is functional. Background: In xenograft studies the graft and the host belong to different species.

The test system of assay [31] is Panel NCI-60 (60 carcinoma cell lines). As to the kind of experiment: Antiproliferative activity against human Panel NCI-60 (60 carcinoma cell lines) assessed as reduction in cell viability. The class given is functional, cell-based.
Assay [32] is described as follows: Inhibition of human LOX.
Assay [33] is filed under the species Homo sapiens. As to the kind of experiment: Inhibition of human Lipoxygenase at 100 uM relative to control.
The test system of assay [34] is Staphylococcus aureus. The experiment in a line: Antibacterial activity against Methicillin-resistant Staphylococcus aureus assessed as reduction in bacterial growth. The class given is functional.
Assay [35] concerns the target Quinolone resistance protein NorA (Staphylococcus aureus) (UniProt P0A0J7). The experiment in a line: Inhibition of NorA efflux pump in Staphylococcus aureus SA1199B overexpressing NorA gene assessed as inhibition of EtBr efflux at 50 uM incubated for 20 mins by fluorometric assay.
Assay [36] has as its target Epidermal growth factor receptor (Homo sapiens, UniProt P00533). As to the kind of experiment: Inhibition of EGFR (unknown origin).
The target of assay [37] is Cytochrome P450 1A2 (Homo sapiens, UniProt P05177). As to the kind of experiment: Inhibition of CYP1A2 (unknown origin). The class given is ADME.
For assay [38], the target named is Dual specificity mitogen-activated protein kinase kinase 1 (Homo sapiens, UniProt Q02750). As to the kind of experiment: Inhibition of RAF1- induced activation of MEK (unknown origin) signalling pathway assessed as reduction in MEK1 phosphorylation.

Values after ≈ are worked out from the molar mass of the structure shown. Some results are limits rather than exact numbers.

Sequence of Cytochrome P450 1A2 (P05177 whole entry): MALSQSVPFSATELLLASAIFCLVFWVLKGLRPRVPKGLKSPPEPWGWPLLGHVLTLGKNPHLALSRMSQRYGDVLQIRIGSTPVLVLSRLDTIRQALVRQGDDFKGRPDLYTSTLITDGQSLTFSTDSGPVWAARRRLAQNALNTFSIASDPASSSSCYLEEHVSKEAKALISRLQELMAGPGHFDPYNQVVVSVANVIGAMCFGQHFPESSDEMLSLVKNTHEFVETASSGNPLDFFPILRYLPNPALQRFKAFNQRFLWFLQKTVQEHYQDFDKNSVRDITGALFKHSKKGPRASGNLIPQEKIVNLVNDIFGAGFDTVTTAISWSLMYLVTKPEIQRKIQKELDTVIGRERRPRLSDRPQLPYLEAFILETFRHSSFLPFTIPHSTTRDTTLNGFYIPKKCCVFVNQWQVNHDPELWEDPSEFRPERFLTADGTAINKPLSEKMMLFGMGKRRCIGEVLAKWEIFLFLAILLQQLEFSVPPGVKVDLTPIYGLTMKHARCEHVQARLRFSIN
Sequence of Epidermal growth factor receptor (P00533 whole entry): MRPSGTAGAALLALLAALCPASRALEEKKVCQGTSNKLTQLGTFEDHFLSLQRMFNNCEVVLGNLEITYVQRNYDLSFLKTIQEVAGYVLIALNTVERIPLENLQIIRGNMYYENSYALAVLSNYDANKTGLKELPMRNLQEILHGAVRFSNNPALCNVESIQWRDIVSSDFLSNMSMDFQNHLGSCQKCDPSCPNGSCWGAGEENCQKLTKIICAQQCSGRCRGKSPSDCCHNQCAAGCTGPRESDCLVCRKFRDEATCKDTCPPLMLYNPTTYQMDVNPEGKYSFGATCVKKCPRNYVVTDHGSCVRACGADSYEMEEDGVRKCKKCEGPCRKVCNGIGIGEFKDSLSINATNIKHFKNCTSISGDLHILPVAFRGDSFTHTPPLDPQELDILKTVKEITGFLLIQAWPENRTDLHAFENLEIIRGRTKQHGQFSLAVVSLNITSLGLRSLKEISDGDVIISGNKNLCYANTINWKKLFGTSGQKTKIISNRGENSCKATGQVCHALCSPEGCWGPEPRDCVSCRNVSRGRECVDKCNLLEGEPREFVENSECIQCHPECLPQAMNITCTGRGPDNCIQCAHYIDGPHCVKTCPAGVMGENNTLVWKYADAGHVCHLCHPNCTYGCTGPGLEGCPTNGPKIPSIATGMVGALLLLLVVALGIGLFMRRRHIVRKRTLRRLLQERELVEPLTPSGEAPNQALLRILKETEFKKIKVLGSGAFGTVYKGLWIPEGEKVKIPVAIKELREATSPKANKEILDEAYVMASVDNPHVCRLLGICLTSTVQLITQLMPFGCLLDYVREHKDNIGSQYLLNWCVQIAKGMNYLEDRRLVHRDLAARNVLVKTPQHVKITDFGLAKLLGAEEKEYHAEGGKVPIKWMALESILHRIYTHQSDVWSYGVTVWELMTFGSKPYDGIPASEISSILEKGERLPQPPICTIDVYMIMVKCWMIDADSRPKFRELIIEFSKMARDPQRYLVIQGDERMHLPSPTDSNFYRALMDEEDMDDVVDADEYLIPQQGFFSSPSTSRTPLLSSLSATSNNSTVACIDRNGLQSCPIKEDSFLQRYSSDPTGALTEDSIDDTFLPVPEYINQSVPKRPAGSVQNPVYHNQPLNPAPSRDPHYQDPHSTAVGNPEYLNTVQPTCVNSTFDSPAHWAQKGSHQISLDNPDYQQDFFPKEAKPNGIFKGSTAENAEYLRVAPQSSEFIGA
Sequence of Dual specificity mitogen-activated protein kinase kinase 1 (Q02750 whole entry): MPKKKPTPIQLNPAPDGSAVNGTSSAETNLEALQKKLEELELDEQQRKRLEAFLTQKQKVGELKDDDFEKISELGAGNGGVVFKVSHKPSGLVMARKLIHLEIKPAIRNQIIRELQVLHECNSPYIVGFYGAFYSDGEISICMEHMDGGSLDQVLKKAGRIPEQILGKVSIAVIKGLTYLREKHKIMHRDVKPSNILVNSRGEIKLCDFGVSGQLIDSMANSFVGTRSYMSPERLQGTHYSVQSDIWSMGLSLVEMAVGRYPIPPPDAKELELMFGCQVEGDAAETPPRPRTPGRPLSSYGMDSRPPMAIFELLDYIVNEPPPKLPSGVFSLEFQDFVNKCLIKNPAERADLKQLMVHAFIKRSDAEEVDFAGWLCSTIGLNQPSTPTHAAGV

As a reminder, the IC50 is the concentration needed to halve the response being measured. Consider `COc1cccc(-c2c[nH]c3c(F)cc(F)cc3c2=O)c1`, for which the values for the IC50 in assay [1] and in [2] were 50 nM and 60 nM, respectively.

What is called inhibition is the percentage by which the read-out fell short of the control. Regarding `CCOC(=O)CCn1ccc2c3c(=O)cc(-c4ccccc4)[nH]c3ccc21`, the IC50 in [3] was determined as 750 nM; in assay [5], 5 nM; in assay [6], 5 nM; in assay [7] it was 5 nM; in [8] it was 5 nM; in assay [9] it was 5 nM. In addition, the IC50 in assay [10], in [11], in assay [12], in [13], in assay [14] and in assay [15] was 5 nM throughout. The IC50 in assay [16], in [17], in assay [18] and in [19] was 5 nM each time. The compound also registered an inhibition in assay [4] of 75%.

With `COc1ccc(-c2oc3cc(O)c(OC)c(O)c3c(=O)c2OC)cc1O` [CENTAUREIDIN], in [4], the inhibition was determined as 35%. The compound also yielded an IC50 in assay [20] of 240 nM.

In the case of `COc1cccc(-c2c[nH]c3c(F)cccc3c2=O)c1`, the half-maximal inhibitory concentration (IC50) was 10 nM in [1] and 30 nM in assay [2].

Take `COc1ccccc1-c1cc(=O)c2ccccc2[nH]1`: the EC50 in assay [21] was found to be 4960 nM. For the same compound, the midpoint of inhibition in [22], the IC50, lay at 1300 nM.

Consider `COc1cc2c(cc1CC=C(C)C)C(=O)NC(c1ccc(O)cc1)N2` (configuration not stated), for which the IC50 in [23] was 250 nM; in [24] it was 500 nM.

As for `COc1cccc(-c2cc(=O)c3ccccc3o2)c1N`, the IC50 in assay [25] amounted to 2950 nM; in assay [26] it was 10000 nM; in assay [27], 8600 nM.

As to `CC(=O)Oc1cc2sc(-c3ccccc3)cc(=O)c2cc1OC(C)=O`, the EC50 in assay [28] was 0.65 µg/mL (≈ 1.83 µM).

In the case of `O=c1cc(-c2ccccc2)[nH]c2ccc3c(ccn3CC3CC3)c12`, the IC50 in [3] came to 900 nM; in assay [7], 20 nM; in assay [8], 20 nM; in assay [9], 20 nM; in assay [10], 20 nM; in assay [12], 20 nM. Also, the IC50 in assay [14], in assay [17], in assay [18] and in assay [19] was 20 nM in each case. The compound further showed an inhibition in assay [4] of 83%.

With `O=C1C[C@H](c2cccc(Br)c2)Nc2ccccc21`, the IC50 in [29] was 400 nM. Besides, the Activity in [30] came out at 60%.

For `COc1cc(O)c2c(O)cc(-c3cccc(F)c3)nc2c1`, in assay [31], the IC50 came out at 14500 nM.

As for `CCOC(=O)C1=C[C@@H](OC(CC)CC)[C@H](NC(C)=O)[C@@H](N)C1` [OSELTAMIVIR], the EC50 in assay [21] came out at 12700 nM. Also, 1900 nM corresponded to half-maximal inhibition in assay [22] (IC50).

In the case of `O=c1c(O)c(-c2ccc(O)c(O)c2)oc2cc(O)cc(O)c12` [QUERCETIN], the EC50 in assay [21] was found to be 560 nM. Also, the IC50 in assay [22] worked out at 8700 nM.

`Oc1ccc2nc(-c3ccccc3O)ccc2c1`: in assay [32], the IC50 was 6500 nM. Moreover, the inhibition in [33] was over 80%.

The MIC is the lowest concentration found to suppress growth. With `CCCOc1ccc(-c2cc(=O)c3ccccc3o2)cc1`, the MIC in assay [34] stood at 0.4 µg/mL (≈ 1.43 µM). Besides, the inhibition in assay [35] is 33.9%.

In assay [32], `Oc1ccc(-c2ccc3ccccc3n2)c2ccccc12` returned a concentration for half-maximal inhibition (IC50) of 6500 nM. The compound further yielded an inhibition in assay [33] of over 80%.

Regarding `COc1cc(O)c2c(O)c(-c3cccc(Cl)c3)cnc2c1`, the IC50 in assay [36] came to 40 nM.

`COc1ccc(-c2cc(=O)c3cc(OC)c4cccc(OC)c4c3[nH]2)cc1` registered a 50% inhibitory concentration (IC50) in assay [37] of 4.1 nM.

For `COc1ccc(-c2cc(=O)c3cc(OC)c(OC)c(OC)c3o2)cc1`, the figures for the IC50 in [3] and in assay [20] were 3000 nM and 1700 nM, respectively. In addition, the inhibition in assay [4] was 43%.

Consider `COc1cccc(-c2cc(=O)c3ccccc3s2)c1N`, for which the IC50 in assay [38] came to 4350 nM; in [25] it was 13800 nM; in assay [26], 30500 nM; in assay [27] it was 29500 nM.

Consider `COc1ccc(-c2oc3c(OC)c(OC)c(OC)c(O)c3c(=O)c2OC)cc1O`, for which the IC50 amounted to 800 nM in assay [3] and 130 nM in [20]. Moreover, the inhibition in assay [4] amounted to 59%.

Source of the values: ChEMBL document CHEMBL5576076, “Bioisosteric heterocyclic analogues of natural bioactive flavonoids by scaffold-hopping approaches: State-of-the-art and perspectives in medicinal chemistry” (Bioorg Med Chem, 2024).
